# Assays:
# breast cancer cell A435 = assay: Inhibition of tumor cell proliferation in vitro (MTT), A435; format: cell-based; conditions: 48 hrs, read-out: Growth inhibition in vitro IC50
# Procedure: (§1) The activity assay of the compounds of the invention was carried out through common methods in the art. Commercially available Sunitinib was used as positive control, and lung cancer cell H460, colon cancer cell COLO205 and HT29, breast cancer cell A435 were used as exemplary tumor cells. The tested compounds were prepared by the methods disclosed in the Examples above.
# (§2) A certain amount (100 μL/well, 0.5−1×10^4 cells/mL) of lung cancer cell H460, colon cancer cell COLO205, and breast cancer cell A435, etc. in logarithmic growth phase were seeded in a 96-well plate, and incubated in an incubator for 24 hrs at 37° C. and 5% CO2. Afterwards, tested compounds and positive control (20 μL/wells) were added, followed by 80 µL of 10% serum medium, and then the tumor cells were incubated for further 48 hrs at 37° C. and 5% CO2. Afterwards, MTT (5 mg/mL) was added to the 96-well plates (20 μL/well), and the cells were incubated for another 4 h. After removing the supernatant, the cells were dissolved with DMSO (150 μL/well) and measured with a microplate reader at 490 nm.
# [1] = system: colon cancer cell COLO205; assay: Inhibition of tumor cell proliferation in vitro (MTT), COLO205; format: cell-based; conditions: Homo sapiens, COLO 205, 48 hrs, read-out: Growth inhibition in vitro IC50
# Procedure: as §1, §2
# Lung cancer cell H460 = assay: Inhibition of tumor cell proliferation in vitro (MTT), H460; format: cell-based; conditions: Homo sapiens, NCI-H460, 48 hrs, read-out: Growth inhibition in vitro IC50
# Procedure: as §1, §2
# [2] = system: poorly differentiated human gastric adenocarcinoma cell BGC-823; assay: Anti-tumor activity assay (MTT), BGC-823; format: cell-based; conditions: 48 hrs, samples stored at −20° C. for one week, read-out: Inhibition rate; for inhibition at 0.1 µg/mL: final concentration 0.1 μg/mL; for inhibition at 1 µg/mL: final concentration 1 μg/mL; for inhibition at 10 µg/mL: final concentration 10 μg/mL
# Procedure: (§3) These tests were carried out using conventional operations in the art. Specifically, the following materials and methods were employed:
# (§4) Human cervical cancer cell Hela, human liver cancer cell SMMC-7721, human lung cancer cell A549, poorly differentiated human gastric adenocarcinoma cell BGC-823, human breast cancer cell MDA-MB-231.
# (§5) To a bottle containing exponential growth phase cells in good condition, 0.25% trypsin solution was added. […] The cell suspension was seeded in a 96-well plate with an amount of 100 μL/well, incubated in a CO2 incubator for 24 hrs. 20 μL/well of tested compounds were added, followed by […], of 10% serum medium, and incubated for 48 hrs. 20 μL/well of MTT (5 mg/mL) was added to the 96-well plate, and the cells were incubated for 4 hrs in the incubator. After removing the supernatant, 150 μL/well of DMSO was added, and the cells were shaked in a horizontal swing bed for 10 minutes. Optical density value (OD value) of each well was measured with an ELISA analyzer at 490 nm, and cell inhibition rate was calculated. The corresponding solvent was used as negative control, and paclitaxel was used as positive control.
# [3] = system: human liver cancer cell SMMC-7721; assay: Anti-tumor activity assay (MTT), SMMC-7721; format: cell-based; conditions: 48 hrs, samples stored at −20° C. for one week, read-out: Inhibition rate; for inhibition at 0.1 µg/mL: final concentration 0.1 μg/mL; for inhibition at 1 µg/mL: final concentration 1 μg/mL; for inhibition at 10 µg/mL: final concentration 10 μg/mL
# Procedure: as §3, §4, §5
# [4] = system: human colon cancer HT-29 cells transplanted in nude mice; assay: Growth inhibition of human cancer HT-29 cells transplanted in nude mice; format: in vivo; conditions: for Body weight d0 / Body weight d21: nude mice with HT-29 tumor; for Body weight d0: d0, time of administration in separate cages; for Body weight d0 / TV d0: 30 mg/kg group; for Body weight d21 / T/C (%) / RTV / TV d21: 30 mg/kg intragastrically once a day for 21 days; for T/C (%): relative tumor proliferation rate TRTV/CRTV; for RTV: relative tumor volume TVt/TV0; for TV d0: tumor volume at d0, time of administration in separate cages; for TV d21: tumor volume at d21
# Procedure: A piece of tumor tissue in vigorous growth phase was obtained and cut into the size of about 1.5 mm^3, and subcutaneously inoculated into the right axillary region of nude mice aseptically. Diameters of transplanted tumors in nude mice were measured with a vernier caliper. After tumors grew to 100˜300 mm^3, the animals were randomly divided into 6 groups: model control group, Sunitinib group (30 mg/kg), Compound 1 group (30 mg/kg), Compound 2 group (30 mg/kg), Compound 3 group (30 mg/kg), Compound 4 group (30 mg/kg). […] Meanwhile, the negative control group was administered equivalent amount of sterile saline. The dynamic observation of antitumor effects of compounds 1-4 and Sunitinib was performed by measuring tumor diameters. […] The general behavior of nude mice was observed and recorded daily. (1) Tumor volume (TV), calculated by the equation: […] wherein a, b represent length and width, respectively. […] RTV=TVt/TV0 wherein TV0 represents the tumor volume at the beginning of administration in separated cages (ie. d0), TVt represents the tumor volume of each measurement. […] T/C %=(TRTV/CRTV)×100% TRTV: RTV of positive control group and each test compound group. CRTV: RTV of model control group.
# [5] = system: Human cervical cancer cell Hela; assay: Anti-tumor activity assay (MTT), Hela; format: cell-based; conditions: 48 hrs, samples freshly prepared with DMSO, read-out: Inhibition rate; for inhibition at 0.1 µg/mL: final concentration 0.1 μg/mL; for inhibition at 1 µg/mL: final concentration 1 μg/mL; for inhibition at 10 µg/mL: final concentration 10 μg/mL
# Procedure: as §3, §4, §5
# [6] = system: human breast cancer cell MDA-MB-231; assay: Anti-tumor activity assay (MTT), MDA-MB-231; format: cell-based; conditions: 48 hrs, samples stored at −20° C. for one week, read-out: Inhibition rate; for inhibition at 0.1 µg/mL: final concentration 0.1 μg/mL; for inhibition at 1 µg/mL: final concentration 1 μg/mL; for inhibition at 10 µg/mL: final concentration 10 μg/mL
# Procedure: as §3, §4, §5
# Fibroblast NIH/3T3 = assay: Inhibition of fibroblast NIH/3T3 proliferation (MTT); format: cell-based; conditions: Mus musculus, NIH3T3, 48 h, read-out: Inhibition of NIH/3T3 cell proliferation in vitro IC50
# Text: The method commonly used at present for studying fibroblast proliferation associated diseases, i.e., for studying tissue and organ fibrosis, is measuring effects of test compounds on NIH/3T3 cell proliferation (Gao Z. M., Wan K., Effect of inhibition of NIH/3T3 cell proliferation by Cantharidin on prevention and treatment of organ and tissue fibrosis. Chinese Journal of Clinical Rehabilitation, 2004 (2). Tao Y. Y., Wang X. L., Effects of Salvianolic Acid-B on TGF-β1/ERK Signaling Transduction in NIH/3T3 Fibroblast. Journal of Capital Medical University, 2007 (2)).
# Fibroblast NIH/3T3 in logarithmic growth phase was seeded in a 96-well plate, by a certain number of cells (100 μL/well, 0.5−1×10^4 cells/mL). After incubating for 24 h, the screened samples (20 μl/well) were added (directly added after cell suspension was seeded in the plate), incubated for further 48 h at 37° C. and 5% CO2. Afterwards, MTT (5 mg/mL) was added to the 96-well plate (20 μL/well). The cells were incubated for another 4 h, and then dissolved with DMSO (150 μL/well) and measured with a microplate reader at 490 nm. The inhibition rate and IC50 were calculated.
# [7] = system: human lung cancer cell A549; assay: Anti-tumor activity assay (MTT), A549; format: cell-based; conditions: 48 hrs, samples stored at −20° C. for one week, read-out: Inhibition rate; for inhibition at 0.1 µg/mL: final concentration 0.1 μg/mL; for inhibition at 1 µg/mL: final concentration 1 μg/mL; for inhibition at 10 µg/mL: final concentration 10 μg/mL
# Procedure: as §3, §4, §5
Structure (SMILES),IC50 (breast cancer cell A435),IC50 [1],IC50 (Lung cancer cell H460),inhibition at 0.1 µg/mL [2],inhibition at 1 µg/mL [2],inhibition at 0.1 µg/mL [3],inhibition at 1 µg/mL [3],Body weight d0 [4],Body weight d21 [4],T/C (%) [4],RTV [4],TV d0 [4],TV d21 [4],inhibition at 0.1 µg/mL [5],inhibition at 1 µg/mL [5],inhibition at 10 µg/mL [5],inhibition at 0.1 µg/mL [6],inhibition at 1 µg/mL [6],inhibition at 10 µg/mL [6],IC50 (Fibroblast NIH/3T3),also measured
"CCN1CCCC1CNC(=O)C(C)NC(=O)c1c(C)[nH]c(/C=C2\C(=O)Nc3ccc(F)cc32)c1C (stereo not drawn) [Compound 12, N-{2-[(1-ethylpyrrolidin-2-yl)methylamino]-1-oxoprop-2-yl}-5-(5-fluoro-2-oxo-1,2-dihydroindole-3-methylene)-2,4-dimethyl-1H-pyrrole-3-formamide]",160 nM,310 nM,440 nM,–,–,–,–,–,–,–,–,–,–,–,–,–,–,–,–,–,–
Cc1[nH]c(/C=C2\C(=O)Nc3ccc(F)cc32)c(C)c1C(=O)NCC1CCCCN1 (stereo not drawn) [Compound 3],68 nM,110 nM,140 nM,-5.42%,17%,-18.6%,4%,20.6 ± 2.0 g,20.8 ± 2.3 g,15.0%,1.3 ± 0.7,196.7 ± 62.7 mm^3,290.4 ± 238.4 mm^3,-3.2%,50.8%,98%,-5.4%,0.5%,88.6%,530 nM,inhibition at 10 µg/mL [2]: 78.8%; inhibition at 10 µg/mL [3]: 62.1%; melting point: 263 to 266 °C; inhibition at 0.1 µg/mL [7]: 11.9%; inhibition at 1 µg/mL [7]: 22.7%; inhibition at 10 µg/mL [7]: 94.2%
"Cc1[nH]c(/C=C2\C(=O)Nc3ccc(F)cc32)c(C)c1C(=O)Nc1ccc(N(C)C)cc1 [Compound 7, N-[4-(dimethylamino)phenyl]-5-(5-fluoro-2-oxo-1,2-dihydroindole-3-methylene)-2,4-dimethyl-1H-pyrrole-3-formamide]",82 nM,170 nM,230 nM,–,–,–,–,–,–,–,–,–,–,–,–,–,–,–,–,505 nM,–
"CCN1CCCC1CNC(=O)CNC(=O)c1c(C)[nH]c(/C=C2\C(=O)Nc3ccc(F)cc32)c1C (stereo not drawn) [Compound 11, N-{2-[(1-ethylpyrrolidin-2-yl)methylamino]-2-oxoethyl}-5-(5-fluoro-2-oxo-1,2-dihydroindole-3-methylene)-2,4-dimethyl-1H-pyrrole-3-formamide]",150 nM,280 nM,410 nM,–,–,–,–,–,–,–,–,–,–,–,–,–,–,–,–,–,–
Cc1[nH]c(/C=C2\C(=O)Nc3ccc(F)cc32)c(C)c1C(=O)NCC1CCNCC1 [Compound 4],220 nM,400 nM,580 nM,–,–,–,–,20.0 ± 2.2 g,20.3 ± 1.5 g,41.0%,3.6 ± 3.2,195.0 ± 67.4 mm^3,791.7 ± 815.0 mm^3,–,–,–,–,–,–,1180 nM,–
"Cc1[nH]c(/C=C2\C(=O)Nc3ccc(F)cc32)c(C)c1C(=O)NCC(=O)Nc1ccc(N(C)C)cc1 [Compound 8, N-{2-[4-(dimethylamino)anilino]-2-oxoethyl}-5-(5-fluoro-2-oxo-1,2-dihydroindole-3-methylene)-2,4-dimethyl-1H-pyrrole-3-formamide]",91 nM,160 nM,170 nM,–,–,–,–,–,–,–,–,–,–,–,–,–,–,–,–,884 nM,–
"CCN(CC)CCNC(=O)c1c(C)[nH]c(/C=C2\C(=O)Nc3ccc(F)cc32)c1C [Sunitinib, reference compound]",630 nM,550 nM,680 nM,9.53%,19.2%,-38.8%,-12.3%,20.4 ± 2.0 g,21.0 ± 1.9 g,51.5%,4.6 ± 1.5,198.2 ± 62.4 mm^3,911.8 ± 481.7 mm^3,-0.21%,24.7%,99.2%,6.4%,28.9%,90.2%,–,inhibition at 10 µg/mL [2]: 88.8%; inhibition at 10 µg/mL [3]: 72.5%; inhibition at 0.1 µg/mL [7]: 7.29%; inhibition at 1 µg/mL [7]: 29.1%; inhibition at 10 µg/mL [7]: 98.7%
"Cc1[nH]c(/C=C2\C(=O)Nc3ccc(F)cc32)c(C)c1C(=O)NC1CCN(Cc2ccccc2)C1 (stereo not drawn) [Compound 6, N-(1-benzylpyrrolidin-3-yl)-5-(5-fluoro-2-oxo-1,2-dihydroindole-3-methylene)-2,4-dimethyl-1H-pyrrole-3-formamide]",87 nM,220 nM,330 nM,–,–,–,–,–,–,–,–,–,–,–,–,–,–,–,–,698 nM,–
"CC(=O)O[C@H]1C(=O)[C@@]2(C)[C@H]([C@H](OC(=O)c3ccccc3)[C@]3(O)C[C@H](OC(=O)[C@H](O)[C@@H](NC(=O)c4ccccc4)c4ccccc4)C(C)=C1C3(C)C)[C@]1(OC(C)=O)CO[C@@H]1C[C@@H]2O [Paclitaxel, reference compound]",–,–,–,85.1%,86.6%,-6.71%,-6.59%,–,–,–,–,–,–,79.7%,78.1%,72.7%,5.9%,4.9%,29.5%,–,inhibition at 0.1 µg/mL [7]: 20.1%; inhibition at 1 µg/mL [7]: 23.8%

# Reference: patent US8829039B2, “Dihydroindolinone derivatives” (Shanghai Institute of Pharmaceutical Industry, priority 2008, dated 2014)
